BindingDB's records for doi:10.7270/Q2H993J6 (Pcmd, 2008)
*1 amine or outer side, *2 acyl side, *3 side chain or, on linkers, in order; H or OH if unused. Where a SMILES comes first, the peptide text is derived from it. The star is where a group is joined. Cbz = O=C(OCc1ccccc1)*; CO = O=C([*:1])[*:2]

target: Coagulation factor XI (Homo sapiens, UniProt P03951); assay: FXIa inhibitor IC50 values, dose response, biochemical, hits from 1536-well screen (AID 846); settings: pH 7.4; 23 °C
Sequence (P03951 19-387 limits assumed): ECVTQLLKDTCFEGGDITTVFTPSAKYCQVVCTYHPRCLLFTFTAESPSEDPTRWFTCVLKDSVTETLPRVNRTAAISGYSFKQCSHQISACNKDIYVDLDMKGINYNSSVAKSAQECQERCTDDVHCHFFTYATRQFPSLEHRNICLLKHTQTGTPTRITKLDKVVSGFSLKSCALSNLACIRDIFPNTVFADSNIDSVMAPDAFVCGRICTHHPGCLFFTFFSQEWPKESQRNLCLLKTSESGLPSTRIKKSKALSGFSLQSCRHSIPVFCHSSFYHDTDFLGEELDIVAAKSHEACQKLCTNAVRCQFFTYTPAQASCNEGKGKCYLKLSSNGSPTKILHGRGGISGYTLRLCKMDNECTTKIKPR
Sequence (P03951 388-625 limits assumed): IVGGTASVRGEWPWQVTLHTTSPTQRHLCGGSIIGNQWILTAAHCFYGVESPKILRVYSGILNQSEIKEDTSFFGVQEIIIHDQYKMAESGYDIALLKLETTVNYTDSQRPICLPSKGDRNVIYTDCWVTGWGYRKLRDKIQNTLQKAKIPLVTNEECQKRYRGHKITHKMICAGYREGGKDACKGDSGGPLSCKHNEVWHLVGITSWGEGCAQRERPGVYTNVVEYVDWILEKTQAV

`CCn1nc(CC(=O)O)c2ccccc2c1=O` [2-(3-ethyl-4-oxidanylidene-phthalazin-1-yl)ethanoic acid] and `CCOC(=O)CSc1nnc(-c2ccccc2)o1` [MLS000526656] cannot be ordered by IC50: greater than 50 µM for the first, greater than 50 µM for the second.

`O=C(NC1CCCC1)C(c1ccccn1)N(C(=O)c1csnn1)C1CC1` (stereo unspecified) [N-[2-(cyclopentylamino)-2-oxo-1-(2-pyridinyl)ethyl]-N-cyclopropyl-4-thiadiazolecarboxamide] and `O=C(COC(=O)c1cc(=O)c2ccccc2o1)NC1CCCCC1` [[2-(cyclohexylamino)-2-oxidanylidene-ethyl] 4-oxidanylidenechromene-2-carboxylate] cannot be ordered by IC50: greater than 50 µM for the first, greater than 50 µM for the second.

First: Cc1ccc(NC(=S)NCCc2ccccc2)nc1 [N-(2-Phenethyl)-N -(2-(5-methylpyridyl))thiourea]
Second: COCC(=O)Nc1ccccc1-c1ccccc1 [N-2-biphenylyl-2-methoxyacetamide]
The IC50 of the first is lower: 5.5 µM for the first, greater than 50 µM for the second.

`Cc1ccc2c(CN3CCN(Cc4ccc5c(c4)OCO5)CC3)cc(=O)oc2c1C` [4-[[4-(1,3-benzodioxol-5-ylmethyl)-1-piperazinyl]methyl]-7,8-dimethyl-1-benzopyran-2-one] and `O=C(Nc1ccc2c(c1)oc1ccccc12)N1CCOCC1` [Morpholine-4-carboxylic acid dibenzofuran-3-ylamide] cannot be ordered by IC50: greater than 50 µM for the first, greater than 50 µM for the second.

`COc1ccc(C(=O)NN=Cc2cc3ccccc3[nH]c2=O)cc1` and `COc1cc(C=NNC(=O)c2ccc(CN3C(=O)c4cccc5cccc3c45)cc2)cc(OC)c1O` [MLS001033788] cannot be ordered by IC50: greater than 50 µM for the first, greater than 50 µM for the second.

`COc1ccc(Cl)cc1NC(=O)Nc1cn(C)nc1C` [SMR000458292] and `COc1ccc(C)cc1NC(=O)COC(=O)C1CCN(C(=O)c2ccc(Cl)cc2)CC1` [[2-[(2-methoxy-5-methyl-phenyl)amino]-2-oxidanylidene-ethyl] 1-(4-chlorophenyl)carbonylpiperidine-4-carboxylate] cannot be ordered by IC50: greater than 50 µM for the first, greater than 50 µM for the second.

Compared with `FC(F)C(F)(F)C(F)(F)C(F)(F)c1cc(-c2ccccc2)n[nH]1` [MLS000106686], `CCCNC(=O)C1CC(c2ccc(C(F)(F)F)cc2)=NO1` (stereo unspecified) [N-propyl-3-[4-(trifluoromethyl)phenyl]-4,5-dihydro-1,2-oxazole-5-carboxamide] is lower in IC50: greater than 50 µM for the first, 14.3 µM for the second. The second is the more potent here.

`Cc1cc(NS(=O)(=O)c2ccc(N3C(=O)C4C5C=CC(C5)C4C3=O)cc2)nc(C)n1` (stereo unspecified) [N-(2,6-dimethyl-4-pyrimidinyl)-4-(3,5-dioxo-4-azatricyclo[5.2.1.0~2,6~]dec-8-en-4-yl)benzenesulfonamide] and `Cc1ccc(NS(=O)(=O)c2ccc(C(=O)OCC(=O)Nc3cc(C)on3)cc2)cc1` [[2-[(5-methyl-1,2-oxazol-3-yl)amino]-2-oxoethyl] 4-[(4-methylphenyl)sulfamoyl]benzoate] cannot be ordered by IC50: greater than 50 µM for the first, greater than 50 µM for the second.

`Cn1cccc1/C=C1\C(=O)NC(=O)N(Cc2ccccc2Cl)C1=O` [(5E)-1-[(2-chlorophenyl)methyl]-5-[(1-methylpyrrol-2-yl)methylidene]-1,3-diazinane-2,4,6-trione] and `O=C1NN(c2ccccc2)C(=O)/C1=C\c1cccc(OC(=O)c2cccs2)c1` [MLS000534153] cannot be ordered by IC50: greater than 50 µM for the first, greater than 50 µM for the second.

Going from `O=C(Cn1[nH]c(=O)c2ccccc2c1=O)Nc1cccc(S(=O)(=O)N2CCCCCC2)c1` [SMR000369234] to `COc1ccc(NCC(=O)Nc2cc(S(=O)(=O)N3CCOCC3)ccc2N2CCOCC2)c(OC)c1` [SMR000371196], the IC50 falls from greater than 50 µM to 6.52 µM.

`CCOC(=O)C(=O)N(Nc1ccc(C)cc1)c1ccc(C)cc1` and `O=C(Nc1ccc(Cl)cc1)Nc1ccccc1C(=O)NCc1ccco1` [2-[(4-chlorophenyl)carbamoylamino]-N-(furan-2-ylmethyl)benzamide] cannot be ordered by IC50: greater than 50 µM for the first, greater than 50 µM for the second.

Compared with `O=C(NCc1ccc2c3c(cccc13)C(=O)N2)c1cccs1` [N-[(2-oxo-1H-benzo[cd]indol-6-yl)methyl]thiophene-2-carboxamide], `O=C(Oc1ccc2ccc(=O)oc2c1)c1cccs1` [2-thiophenecarboxylic acid (2-oxo-1-benzopyran-7-yl) ester] is lower in IC50: greater than 50 µM for the first, 2.68 µM for the second. The second is the more potent here.

First: CCCCCCCc1c(O)nc(SCCN(C)C)[nH]c1=O [SMR000414668]
Second: Cc1nnc(SCCn2c(Br)nc3c2c(=O)[nH]c(=O)n3C)s1
The IC50 of the first is lower: 14 µM for the first, greater than 50 µM for the second. The first is the more potent here.

Compared with `CN1C(=O)C(=NOC(=O)c2ccccc2)c2ccccc21` [MLS000556117], `O=C(O)c1ccc(/C=C2\SC(=S)N(Nc3ccccc3)C2=O)cc1` [4-[4-Oxo-3-phenylamino-2-thioxo-thiazolidin-(5Z)-ylidenemethyl]-benzoic acid] is higher in IC50: 25.9 µM for the first, greater than 50 µM for the second. The first is the more potent here.

`O=C(NN=C1CCCC1)c1ccccc1OCc1ccc(Cl)cc1` and `O=C(Nc1ccc(Cl)cc1)Nc1nc(-c2ccccc2O)cs1` [1-(4-chlorophenyl)-3-[4-(2-hydroxyphenyl)-1,3-thiazol-2-yl]urea] cannot be ordered by IC50: greater than 50 µM for the first, greater than 50 µM for the second.

`CC(C)C(NC(=O)C(Cc1ccccc1)NC(=O)OCc1ccccc1)C(=O)O` (stereo not drawn) [3-methyl-2-[[1-oxo-3-phenyl-2-(phenylmethoxycarbonylamino)propyl]amino]butanoic acid] (Cbz-Phe-Val-OH; configuration not given here) and `CC(Cc1ccccc1)=NNC(=O)CNC(=O)C=Cc1ccccc1` [(Z)-N-[2-oxo-2-[2-(1-phenylpropan-2-ylidene)hydrazinyl]ethyl]-3-phenyl-2-propenamide] cannot be ordered by IC50: greater than 50 µM for the first, greater than 50 µM for the second.

`O=C(c1cccn2c(=O)c3cc(Br)ccc3nc12)N1CCC2(CC1)OCCO2` [2-bromanyl-6-(1,4-dioxa-8-azaspiro[4.5]decan-8-ylcarbonyl)pyrido[2,1-b]quinazolin-11-one] and `O=C(Nc1cc([N+](=O)[O-])ccc1N1CCOCC1)c1ccco1` [N-(2-morpholin-4-yl-5-nitro-phenyl)furan-2-carboxamide] cannot be ordered by IC50: greater than 50 µM for the first, greater than 50 µM for the second.

`CCOC(=O)c1c(C)n(C)c2ccc(OC)c(NC(=O)CCN3CCC(Cc4ccccc4)CC3)c12` [ethyl 5-methoxy-1,2-dimethyl-4-[3-[4-(phenylmethyl)piperidin-1-yl]propanoylamino]indole-3-carboxylate] and `COC(=O)c1c(NC(=O)COC(=O)Cn2cnc3ccccc32)sc(C)c1C` [SMR000062436] cannot be ordered by IC50: greater than 50 µM for the first, greater than 50 µM for the second.

`Cc1ccc(C(=O)n2nc(-c3cccnc3)nc2N)cc1` [1-(4-methylbenzoyl)-3-(3-pyridinyl)-1H-1,2,4-triazol-5-amine] and `Cn1nc(C(=O)Nc2nc(-c3ccc(F)cc3)cs2)ccc1=O` [N-[4-(4-fluorophenyl)-1,3-thiazol-2-yl]-1-methyl-6-oxopyridazine-3-carboxamide] cannot be ordered by IC50: greater than 50 µM for the first, greater than 50 µM for the second.

`Cn1nnc(CC[N+](C)(C)C)n1` [SMR000427769] and `COc1cc(CN=Nc2cc(C)nc(NS(=O)(=O)c3ccccc3)n2)ccc1O` cannot be ordered by IC50: greater than 50 µM for the first, greater than 50 µM for the second.

`CC1=C(C(=O)OCCOc2ccccc2)C(c2ccsc2)NC(=O)N1C` (stereo unspecified) [2-phenoxyethyl 3,4-dimethyl-2-oxo-6-thiophen-3-yl-1,6-dihydropyrimidine-5-carboxylate] and `CCOc1cccc2c1OC1(C)CC2NC(=O)N1Cc1ccccc1` (stereo unspecified) [MLS000730538] cannot be ordered by IC50: greater than 50 µM for the first, greater than 50 µM for the second.

`CC1=CCC2C(=O)N(C(C)c3ccccc3)C(=O)C2C1` (stereo unspecified) [5-methyl-2-(1-phenylethyl)-3a,4,7,7a-tetrahydro-1H-isoindole-1,3(2H)-dione] and `CC(C)(C)C(=O)CSc1ncnc2c1cnn2-c1ccccc1` cannot be ordered by IC50: greater than 50 µM for the first, greater than 50 µM for the second.

`C=C(C)CNC(=S)NN=C(C)c1cccc(NC(C)=O)c1` [SMR000384154] and `O=C(NNC1=NCCCCC1)Nc1cccc(Cl)c1` cannot be ordered by IC50: greater than 50 µM for the first, greater than 50 µM for the second.

First: O=C1OCC2OC(O)C(O)C(O)C2OC(=O)c2cc(O)c(O)c(O)c2-c2c(O)c(O)c3oc(=O)c4c(c(O)c(O)c5oc(=O)c2c3c54)-c2c1cc(O)c(O)c2O (stereo unspecified) [SMR000445568]
Second: O=C(O)c1ccc(N=C(NS(=O)(=O)c2ccc(Cl)cc2)c2ccccc2)cc1 [4-({[(E)-4-Chloro-benzenesulfonylimino]-phenyl-methyl}-amino)-benzoic acid]
The IC50 of the first is lower: 6.08 µM for the first, greater than 50 µM for the second. The first is the more potent here.

`CC1(C)C2CCC(C2)C1(C)/N=C1\OC(CCl)CS1` (stereo unspecified) [MLS001012164] and `COc1c(C)cc(C(=O)C2CCCN(S(=O)(=O)c3c(C)noc3C)C2)cc1C` (stereo unspecified) [MLS000693702] cannot be ordered by IC50: greater than 50 µM for the first, greater than 50 µM for the second.

`CCN1CCN(CC(=O)Nc2cc(C)on2)CC1` [2-(4-ethylpiperazin-1-yl)-N-(5-methyl-1,2-oxazol-3-yl)acetamide;oxalic acid] and `CCNc1cc(N2CCNCC2)ccc1[N+](=O)[O-]` cannot be ordered by IC50: greater than 50 µM for the first, greater than 50 µM for the second.

Going from `CC(C)[C@H](NC(=O)[C@H](CCCNC(=N)N)NC(=O)N[C@@H](Cc1ccccc1)C(=O)O)C(=O)N[C@H](C=O)CCCNC(=N)N` [2-[[[[(2S)-5-(diaminomethylideneamino)-1-[[(2S)-1-[[5-(diaminomethylideneamino)-1-oxopentan-2-yl]amino]-3-methyl-1-oxobutan-2-yl]amino]-1-oxopentan-2-yl]amino]-oxomethyl]amino]-3-phenylpropanoic acid] ({Phe-CO}-Arg-Val-Arg-aldehyde) to `CS(=O)(=O)c1ccc(Cl)c(NC(=O)COC(=O)CNC(=O)c2ccccc2)c1` [2-benzamidoacetic acid [2-(2-chloro-5-methylsulfonylanilino)-2-oxoethyl] ester], the IC50 rises from 3.81 µM to greater than 50 µM. The first is the more potent here.

`CCCOC(=O)c1ccc(Oc2c[nH]nc2-c2ccc(OCC(=O)NN)cc2O)cc1` [4-[[(3E)-3-[4-(2-hydrazinyl-2-oxoethoxy)-6-oxo-1-cyclohexa-2,4-dienylidene]-1,2-dihydropyrazol-4-yl]oxy]benzoic acid propyl ester] and `COc1cc(C(=O)OCC(C)=O)ccc1OCc1c(C)noc1C` [SMR000377658] cannot be ordered by IC50: greater than 50 µM for the first, greater than 50 µM for the second.

`Clc1ccc(-c2csc(N3CCOCC3)n2)cc1` [4-[4-(4-chlorophenyl)-2-thiazolyl]morpholine] and `O=C(COC(=O)CCc1nc2ccccc2c(=O)[nH]1)Nc1ccc(Cl)cn1` [[2-[(5-chloropyridin-2-yl)amino]-2-oxoethyl] 3-(4-oxo-1H-quinazolin-2-yl)propanoate] cannot be ordered by IC50: greater than 50 µM for the first, greater than 50 µM for the second.

`O=[N+]([O-])c1ccc(OCCO)c(P(=O)(c2ccccc2)c2ccccc2)c1` [SMR000420001] and `Cc1sc2c(c1C)C(=O)NC(c1cccc(O)c1)N2` (stereo unspecified) [2-(3-hydroxyphenyl)-5,6-dimethyl-2,3-dihydrothieno[2,3-d]pyrimidin-4(1H)-one] cannot be ordered by IC50: greater than 50 µM for the first, greater than 50 µM for the second.

Compound `CCCn1cc(C(=O)OCC)c(=O)c2cc(F)c(F)cc21` [SMR000427606] has an IC50 greater than 50 µM.
